From ChEMBL document CHEMBL4507278 (2021)

Tests used:
[1] = molecular target: Ephrin type-A receptor 5 (Homo sapiens) (UniProt P54756); conditions: Compound concentration 1000.0 nM
[2] = molecular target: Serine/threonine-protein kinase 26 (Homo sapiens) (UniProt Q9P289); conditions: Compound concentration 1000.0 nM
[3] = molecular target: Fibroblast growth factor receptor 2 (Homo sapiens) (UniProt P21802); conditions: Compound concentration 1000.0 nM
[4] = molecular target: Dual specificity mitogen-activated protein kinase kinase 1 (Homo sapiens) (UniProt Q02750); conditions: Compound concentration 1000.0 nM
[5] = molecular target: Serine/threonine-protein kinase 17A (Homo sapiens) (UniProt Q9UEE5); conditions: Compound concentration 1000.0 nM
[6] = molecular target: Protein kinase C iota type (Homo sapiens) (UniProt P41743); conditions: Compound concentration 1000.0 nM
[7] = test system: Mast/stem cell growth factor receptor Kit (Homo sapiens), P10721 [V559D,T670I]; conditions: Compound concentration 1000.0 nM
[8] = test system: Phosphatidylinositol 4,5-bisphosphate 3-kinase catalytic subunit alpha isoform (Homo sapiens), P42336 [E545A]; conditions: Compound concentration 1000.0 nM
[9] = test system: Receptor-type tyrosine-protein kinase FLT3 (Homo sapiens), P36888 [N841I]; conditions: Compound concentration 1000.0 nM
[10] = molecular target: Serine/threonine-protein kinase N2 (Homo sapiens) (UniProt Q16513); conditions: Compound concentration 1000.0 nM
[11] = test system: Mast/stem cell growth factor receptor Kit (Homo sapiens), P10721 [A829P]; conditions: Compound concentration 1000.0 nM
[12] = molecular target: Tyrosine-protein kinase JAK2 (Homo sapiens) (UniProt O60674); conditions: Compound concentration 1000.0 nM
[13] = molecular target: Alpha-2C adrenergic receptor (Homo sapiens) (UniProt P18825); conditions: Compound concentration 10.0 uM
[14] = molecular target: cGMP-dependent protein kinase 1 (Homo sapiens) (UniProt Q13976); conditions: Compound concentration 1000.0 nM
[15] = molecular target: cAMP-dependent protein kinase catalytic subunit beta (Homo sapiens) (UniProt P22694); conditions: Compound concentration 1000.0 nM
[16] = molecular target: Phosphorylase b kinase regulatory subunit alpha, liver isoform (Homo sapiens) (UniProt P46019); conditions: Compound concentration 1000.0 nM
[17] = test system: Phosphatidylinositol 4,5-bisphosphate 3-kinase catalytic subunit alpha isoform (Homo sapiens), P42336 [E545K]; conditions: Compound concentration 1000.0 nM
[18] = test system: Phosphatidylinositol 4,5-bisphosphate 3-kinase catalytic subunit alpha isoform (Homo sapiens), P42336 [Q546K]; conditions: Compound concentration 1000.0 nM
[19] = molecular target: Mitogen-activated protein kinase 1 (Homo sapiens) (UniProt P28482); conditions: Compound concentration 1000.0 nM
[20] = molecular target: MAP/microtubule affinity-regulating kinase 3 (Homo sapiens) (UniProt P27448); conditions: Compound concentration 1000.0 nM
[21] = molecular target: Calcium/calmodulin-dependent protein kinase type II subunit alpha (Homo sapiens) (UniProt Q9UQM7); conditions: Compound concentration 1000.0 nM
[22] = molecular target: Activin receptor type-1-like (Homo sapiens) (UniProt P37023); conditions: Compound concentration 1000.0 nM
[23] = molecular target: Serine/threonine-protein kinase 10 (Homo sapiens) (UniProt O94804); conditions: Compound concentration 1000.0 nM
[24] = molecular target: MAP kinase-interacting serine/threonine-protein kinase 2 (Homo sapiens) (UniProt Q9HBH9); conditions: Compound concentration 1000.0 nM
[25] = molecular target: Serine/threonine-protein kinase Nek11 (Homo sapiens) (UniProt Q8NG66); conditions: Compound concentration 1000.0 nM
[26] = molecular target: Serine/threonine-protein kinase 38 (Homo sapiens) (UniProt Q15208); conditions: Compound concentration 1000.0 nM
[27] = molecular target: Cyclin-dependent kinase-like 5 (Homo sapiens) (UniProt O76039); conditions: Compound concentration 1000.0 nM
[28] = molecular target: Calcium/calmodulin-dependent protein kinase type IV (Homo sapiens) (UniProt Q16566); conditions: Compound concentration 1000.0 nM
[29] = test system: Phosphatidylinositol 4,5-bisphosphate 3-kinase catalytic subunit alpha isoform (Homo sapiens), P42336 [H1047L]; conditions: Compound concentration 1000.0 nM
[30] = molecular target: NUAK family SNF1-like kinase 1 (Homo sapiens) (UniProt O60285); conditions: Compound concentration 1000.0 nM
[31] = molecular target: Serine/threonine-protein kinase ULK3 (Homo sapiens) (UniProt Q6PHR2); conditions: Compound concentration 1000.0 nM
[32] = molecular target: Serine/threonine-protein kinase TAO3 (Homo sapiens) (UniProt Q9H2K8); conditions: Compound concentration 1000.0 nM
[33] = molecular target: Serine/threonine-protein kinase Nek5 (Homo sapiens) (UniProt Q6P3R8); conditions: Compound concentration 1000.0 nM
[34] = test system: Phosphatidylinositol 4,5-bisphosphate 3-kinase catalytic subunit alpha isoform (Homo sapiens), P42336 [C420R]; conditions: Compound concentration 1000.0 nM
[35] = molecular target: Mast/stem cell growth factor receptor Kit (Homo sapiens) (UniProt P10721); conditions: Compound concentration 1000.0 nM
[36] = molecular target: Wee1-like protein kinase (Homo sapiens) (UniProt P30291); conditions: Compound concentration 1000.0 nM
[37] = molecular target: Death-associated protein kinase 1 (Homo sapiens) (UniProt P53355); conditions: Compound concentration 1000.0 nM
[38] = molecular target: Mitogen-activated protein kinase kinase kinase 5 (Homo sapiens) (UniProt Q99683); conditions: Compound concentration 1000.0 nM
[39] = molecular target: Serine/threonine-protein kinase SIK2 (Homo sapiens) (UniProt Q9H0K1); conditions: Compound concentration 1000.0 nM
[40] = molecular target: Casein kinase II subunit alpha (Homo sapiens) (UniProt P68400); conditions: Compound concentration 1000.0 nM
[41] = molecular target: Serine/threonine-protein kinase PAK 2 (Homo sapiens) (UniProt Q13177); conditions: Compound concentration 1000.0 nM
[42] = molecular target: Rhodopsin kinase GRK7 (Homo sapiens) (UniProt Q8WTQ7); conditions: Compound concentration 1000.0 nM
[43] = molecular target: cAMP-dependent protein kinase catalytic subunit PRKX (Homo sapiens) (UniProt P51817); conditions: Compound concentration 1000.0 nM
[44] = molecular target: Serine/threonine-protein kinase 4 (Homo sapiens) (UniProt Q13043); conditions: Compound concentration 1000.0 nM
Sequence of Serine/threonine-protein kinase 4 (Homo sapiens) (Q13043 whole entry): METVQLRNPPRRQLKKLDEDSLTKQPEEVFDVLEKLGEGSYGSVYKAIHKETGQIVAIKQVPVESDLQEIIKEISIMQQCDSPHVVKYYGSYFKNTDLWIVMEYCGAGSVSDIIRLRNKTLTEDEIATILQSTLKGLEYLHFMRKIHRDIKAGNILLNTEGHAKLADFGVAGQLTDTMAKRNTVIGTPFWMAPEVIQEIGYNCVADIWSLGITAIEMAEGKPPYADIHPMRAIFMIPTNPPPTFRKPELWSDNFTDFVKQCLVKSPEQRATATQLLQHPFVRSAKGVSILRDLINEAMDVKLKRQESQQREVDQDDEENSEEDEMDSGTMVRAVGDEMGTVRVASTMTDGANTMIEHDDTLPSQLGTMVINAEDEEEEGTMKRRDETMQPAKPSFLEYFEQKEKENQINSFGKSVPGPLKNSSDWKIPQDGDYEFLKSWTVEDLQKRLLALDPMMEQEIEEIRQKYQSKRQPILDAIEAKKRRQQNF

Sequence of Dual specificity mitogen-activated protein kinase kinase 1 (Homo sapiens) (Q02750 whole entry): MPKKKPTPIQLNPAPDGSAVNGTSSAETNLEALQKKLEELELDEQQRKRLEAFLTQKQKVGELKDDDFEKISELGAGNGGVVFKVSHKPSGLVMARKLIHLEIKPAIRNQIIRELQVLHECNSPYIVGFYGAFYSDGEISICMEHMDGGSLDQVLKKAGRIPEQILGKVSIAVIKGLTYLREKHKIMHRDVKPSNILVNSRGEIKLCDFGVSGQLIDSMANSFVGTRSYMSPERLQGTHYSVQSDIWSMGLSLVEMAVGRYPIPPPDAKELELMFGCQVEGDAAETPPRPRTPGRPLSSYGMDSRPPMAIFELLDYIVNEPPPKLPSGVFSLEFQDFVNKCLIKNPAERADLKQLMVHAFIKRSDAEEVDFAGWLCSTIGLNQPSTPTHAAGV
Sequence of Calcium/calmodulin-dependent protein kinase type II subunit alpha (Homo sapiens) (Q9UQM7 whole entry): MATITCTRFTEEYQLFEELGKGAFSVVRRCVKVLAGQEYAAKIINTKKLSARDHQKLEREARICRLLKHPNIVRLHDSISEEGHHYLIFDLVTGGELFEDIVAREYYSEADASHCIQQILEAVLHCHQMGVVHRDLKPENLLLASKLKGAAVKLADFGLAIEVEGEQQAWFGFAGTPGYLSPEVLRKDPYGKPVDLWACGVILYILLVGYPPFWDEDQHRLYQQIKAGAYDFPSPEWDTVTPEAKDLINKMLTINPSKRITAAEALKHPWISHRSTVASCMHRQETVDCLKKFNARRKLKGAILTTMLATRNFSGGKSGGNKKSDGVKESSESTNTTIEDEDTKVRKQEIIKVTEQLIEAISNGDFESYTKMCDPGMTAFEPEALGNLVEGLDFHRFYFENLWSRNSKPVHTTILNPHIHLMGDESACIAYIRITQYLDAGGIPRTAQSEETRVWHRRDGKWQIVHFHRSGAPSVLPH
Sequence of Mitogen-activated protein kinase kinase kinase 5 (Homo sapiens) (Q99683 whole entry): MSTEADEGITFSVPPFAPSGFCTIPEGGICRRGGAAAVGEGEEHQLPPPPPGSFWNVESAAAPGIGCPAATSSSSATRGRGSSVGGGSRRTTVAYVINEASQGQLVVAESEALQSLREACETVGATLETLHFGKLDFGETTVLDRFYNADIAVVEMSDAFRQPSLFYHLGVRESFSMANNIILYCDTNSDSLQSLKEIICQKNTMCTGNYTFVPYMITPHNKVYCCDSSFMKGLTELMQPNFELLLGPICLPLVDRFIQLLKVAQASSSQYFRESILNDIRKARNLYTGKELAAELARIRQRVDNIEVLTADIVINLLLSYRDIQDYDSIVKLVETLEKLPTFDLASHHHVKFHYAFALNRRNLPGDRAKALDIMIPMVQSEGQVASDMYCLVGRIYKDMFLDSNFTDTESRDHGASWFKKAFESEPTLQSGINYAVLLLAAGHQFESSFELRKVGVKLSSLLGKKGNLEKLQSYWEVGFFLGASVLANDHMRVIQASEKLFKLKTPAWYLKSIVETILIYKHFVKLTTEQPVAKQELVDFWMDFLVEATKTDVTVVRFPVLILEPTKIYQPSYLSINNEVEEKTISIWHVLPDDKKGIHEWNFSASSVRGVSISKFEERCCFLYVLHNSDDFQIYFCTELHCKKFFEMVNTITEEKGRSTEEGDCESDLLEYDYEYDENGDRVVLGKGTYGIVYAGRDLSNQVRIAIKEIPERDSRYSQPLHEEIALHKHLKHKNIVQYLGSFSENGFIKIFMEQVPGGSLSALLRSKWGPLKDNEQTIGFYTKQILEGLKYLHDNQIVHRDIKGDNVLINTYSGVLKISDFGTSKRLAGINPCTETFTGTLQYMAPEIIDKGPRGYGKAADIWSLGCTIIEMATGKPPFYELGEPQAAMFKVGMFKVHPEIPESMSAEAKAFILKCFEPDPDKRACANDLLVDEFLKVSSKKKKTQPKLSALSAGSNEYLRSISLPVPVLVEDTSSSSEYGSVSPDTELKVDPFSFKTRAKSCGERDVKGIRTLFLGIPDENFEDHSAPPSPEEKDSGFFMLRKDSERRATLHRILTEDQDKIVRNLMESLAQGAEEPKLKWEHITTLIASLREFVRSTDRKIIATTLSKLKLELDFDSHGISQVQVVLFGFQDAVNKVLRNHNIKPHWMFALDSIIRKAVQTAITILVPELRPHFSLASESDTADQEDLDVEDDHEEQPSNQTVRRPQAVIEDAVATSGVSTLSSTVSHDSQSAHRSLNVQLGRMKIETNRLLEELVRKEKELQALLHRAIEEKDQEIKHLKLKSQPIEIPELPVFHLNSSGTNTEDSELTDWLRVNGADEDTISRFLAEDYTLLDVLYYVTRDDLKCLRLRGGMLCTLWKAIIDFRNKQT
Sequence of Phosphatidylinositol 4,5-bisphosphate 3-kinase catalytic subunit alpha isoform (Homo sapiens), P42336 [E545A] (P42336 whole entry E545A, canonical isoform): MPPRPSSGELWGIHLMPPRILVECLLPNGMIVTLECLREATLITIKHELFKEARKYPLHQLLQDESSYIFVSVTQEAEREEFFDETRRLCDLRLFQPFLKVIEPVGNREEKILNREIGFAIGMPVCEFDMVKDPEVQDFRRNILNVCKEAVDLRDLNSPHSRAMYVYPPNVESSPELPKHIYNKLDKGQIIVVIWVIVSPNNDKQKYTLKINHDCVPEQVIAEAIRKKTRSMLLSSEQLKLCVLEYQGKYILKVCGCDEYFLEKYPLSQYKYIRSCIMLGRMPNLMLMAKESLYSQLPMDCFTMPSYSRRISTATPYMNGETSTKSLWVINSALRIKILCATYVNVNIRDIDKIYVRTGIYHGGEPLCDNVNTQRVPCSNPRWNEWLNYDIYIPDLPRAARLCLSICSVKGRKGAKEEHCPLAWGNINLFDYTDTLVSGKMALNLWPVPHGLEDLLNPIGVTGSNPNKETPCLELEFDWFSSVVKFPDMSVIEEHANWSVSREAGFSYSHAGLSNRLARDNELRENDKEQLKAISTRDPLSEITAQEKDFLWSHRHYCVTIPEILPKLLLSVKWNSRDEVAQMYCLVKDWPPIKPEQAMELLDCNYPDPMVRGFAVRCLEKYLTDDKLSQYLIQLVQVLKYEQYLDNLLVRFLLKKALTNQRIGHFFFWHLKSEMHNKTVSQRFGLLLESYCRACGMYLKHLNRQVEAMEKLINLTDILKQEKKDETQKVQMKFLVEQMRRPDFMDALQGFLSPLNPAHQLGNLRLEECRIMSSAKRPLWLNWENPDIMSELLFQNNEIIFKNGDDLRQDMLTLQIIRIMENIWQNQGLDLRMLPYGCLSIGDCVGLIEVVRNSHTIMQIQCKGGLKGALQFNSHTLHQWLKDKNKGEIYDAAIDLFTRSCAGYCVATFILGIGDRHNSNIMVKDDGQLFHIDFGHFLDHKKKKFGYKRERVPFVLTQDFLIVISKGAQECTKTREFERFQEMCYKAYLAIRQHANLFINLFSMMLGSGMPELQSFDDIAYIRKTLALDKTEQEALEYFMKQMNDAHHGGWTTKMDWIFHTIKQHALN
Sequence of Calcium/calmodulin-dependent protein kinase type IV (Homo sapiens) (Q16566 whole entry, canonical isoform): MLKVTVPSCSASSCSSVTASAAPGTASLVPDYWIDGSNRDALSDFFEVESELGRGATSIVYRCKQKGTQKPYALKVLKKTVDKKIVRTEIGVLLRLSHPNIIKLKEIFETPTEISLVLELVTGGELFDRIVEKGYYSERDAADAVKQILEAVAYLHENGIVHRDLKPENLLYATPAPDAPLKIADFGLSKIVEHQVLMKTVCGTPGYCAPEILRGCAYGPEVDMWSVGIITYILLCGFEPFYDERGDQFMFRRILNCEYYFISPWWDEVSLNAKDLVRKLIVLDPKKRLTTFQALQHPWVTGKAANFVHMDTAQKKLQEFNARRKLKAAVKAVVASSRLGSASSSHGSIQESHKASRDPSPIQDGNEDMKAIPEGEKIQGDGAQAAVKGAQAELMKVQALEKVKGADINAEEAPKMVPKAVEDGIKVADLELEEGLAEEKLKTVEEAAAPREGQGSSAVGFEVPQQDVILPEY
Sequence of MAP kinase-interacting serine/threonine-protein kinase 2 (Homo sapiens) (Q9HBH9 whole entry, looked up): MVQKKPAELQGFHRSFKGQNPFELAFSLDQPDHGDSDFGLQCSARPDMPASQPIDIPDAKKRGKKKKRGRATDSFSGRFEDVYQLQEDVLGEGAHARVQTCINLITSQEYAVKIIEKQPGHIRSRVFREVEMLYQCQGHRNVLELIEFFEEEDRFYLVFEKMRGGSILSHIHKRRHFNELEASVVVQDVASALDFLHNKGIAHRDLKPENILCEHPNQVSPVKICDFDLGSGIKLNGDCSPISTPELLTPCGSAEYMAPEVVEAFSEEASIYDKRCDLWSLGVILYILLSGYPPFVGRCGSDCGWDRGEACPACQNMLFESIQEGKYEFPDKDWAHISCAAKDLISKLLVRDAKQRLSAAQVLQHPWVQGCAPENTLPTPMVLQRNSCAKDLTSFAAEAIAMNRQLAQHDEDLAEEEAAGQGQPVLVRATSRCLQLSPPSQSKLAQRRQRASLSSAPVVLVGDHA

CS(=O)(=O)NCC[C@H](NC(=O)c1cncc2c1cnn2-c1ccc(F)cc1)c1ccnc(S(C)(=O)=O)c1 [BI 9307]
inactive: residual activity [1] 100% | residual activity [2] 98% | residual activity [3] 100% | residual activity [4] 100% | residual activity [5] 100% | residual activity [6] 100% | residual activity [7] 100% | residual activity [8] 100% | residual activity [9] 91% | residual activity [10] 100% | residual activity [11] 83% | residual activity [12] 100% | inhibition [13] -2.08% | residual activity [14] 96% | residual activity [15] 100% | residual activity [16] 100% | residual activity [17] 78% | residual activity [18] 73% | residual activity [19] 100% | residual activity [20] 92% | residual activity [21] 100% | residual activity [22] 96% | residual activity [23] 100% | residual activity [24] 100% | residual activity [25] 100% | residual activity [26] 100% | residual activity [27] 100% | residual activity [28] 100% | residual activity [29] 77% | residual activity [30] 85% | residual activity [31] 100% | residual activity [32] 80% | residual activity [33] 100% | residual activity [34] 98% | residual activity [35] 100% | residual activity [36] 99% | residual activity [37] 100% | residual activity [38] 96% | residual activity [39] 100% | residual activity [40] 100% | residual activity [41] 71% | residual activity [42] 100% | residual activity [43] 100% | residual activity [44] 100%

CS(=O)(=O)c1cc(C2(NC(=O)c3cncc4c3cnn4-c3ccc(F)cc3)CC2)ccn1 [BI 639667]
inactive: residual activity [1] 100% | residual activity [2] 97% | residual activity [3] 100% | residual activity [4] 81% | residual activity [5] 84% | residual activity [6] 100% | residual activity [7] 84% | residual activity [8] 100% | residual activity [9] 100% | residual activity [10] 100% | residual activity [11] 100% | residual activity [12] 100% | inhibition [13] -6.8% | residual activity [14] 100% | residual activity [15] 100% | residual activity [16] 100% | residual activity [17] 74% | residual activity [18] 66% | residual activity [19] 94% | residual activity [20] 100% | residual activity [21] 100% | residual activity [22] 100% | residual activity [23] 99% | residual activity [24] 100% | residual activity [25] 100% | residual activity [26] 100% | residual activity [27] 89% | residual activity [28] 100% | residual activity [29] 100% | residual activity [30] 91% | residual activity [31] 100% | residual activity [32] 97% | residual activity [33] 100% | residual activity [34] 83% | residual activity [35] 96% | residual activity [36] 100% | residual activity [37] 83% | residual activity [38] 97% | residual activity [39] 100% | residual activity [40] 64% | residual activity [41] 100% | residual activity [42] 96% | residual activity [43] 85% | residual activity [44] 77%
